“Also recorded” adds a separate entry of the source.
Tests used:
[1] = test system: primary mouse hepatocytes; assay: Hepatocyte proliferation (BrdU incorporation)
Description: (A) Primary mouse hepatocytes from wild-type mice were treated with increasing doses of exosomes derived from wild-type or CXCR2-deficient hepatocytes for 24 hrs. Cell proliferation was determined via BrdU incorporation. Data are mean±SEM with n=8-16 per group. *P<0.05 compared to control mice. **P<0.05 compared to untreated samples.
Hepatocytes were treated with hepatocyte-derived exosomes for 24 hrs. DNA incorporation of 5-bromo-20-deoxyuridine (BrdU) was employed to evaluate hepatocyte proliferation by exosomes, and data were normalized by the amount of viable cells and expressed as a ratio compared with medium alone. A commercial BrdU cell proliferation ELISA system (Abcam, Cambridge, UK) was used for this assay.

[2] = test system: isolated wildtype and CXCR2-deficient hepatocytes; assay: Release of exosomes from isolated hepatocytes (CD81 antigen ELISA); assay type: cell-based, mouse; conditions: GW4869 for 48 hrs
Description: FIG. 2. CXCR2 regulates the neutral sphingomyelinase/ceramide system to release exosomes. (A) CXCR2-deficient cells show higher concentrations of ceramide than wildtype hepatocytes as determined by staining of isolated hepatocytes with Cy3-coupled anti-ceramide antibodies (A, upper panel). The intensity of the fluorescence staining in panel a reflects ceramide levels. […] Data are representative for 4 similar stainings. (B) Ceramide activity in hepatocytes was determined by a ceramide kinase assay. Data are mean±SEM with n=4 per group. *P<0.05 compared to wild-type mice. (C) Neutral sphingomyelinase activity is increased in CXCR2-deficient hepatocytes compared to wild-type mice. Data are mean±SEM with n=4 per group. *P<0.05 compared to wild-type mice. […] Cells were treated with GW4869 for 48 hrs in Williams media supplemented with exosome-depleted FBS and the number of exosomes was determined using differential centrifugation and detection of exosomes using a CD81 antigen ELISA kit. Data are mean±SEM with n=4 per group, *P<0.05 compared to wild-type mice. […]
Exosomes were purified from serum and the culture media. […] The size of exosomes in the serum and the culture medium was determined using a Zetasizer Nano (Malvern Instruments, Malvern, UK) and the number of exosomes was assessed by the CD81-antigen ELISA kit (System Biosciences).

[3] = test system: sphingosine-1-phosphate (S1P) in hepatocytes; assay: Measurement of S1P in hepatocytes by ELISA; assay type: cell-based, mouse; conditions: pre-incubation of hepatocytes with SPHK I2 (20 μM)

Nc1ncnc2c1ncn2[C@@H]1O[C@H](COC(=O)c2ccc(S(=O)(=O)F)cc2)[C@@H](O)[C@H]1O [FSBA]
exosome-induced hepatocyte proliferation ([1]; exosomes treated with FSBA, washed, then added to primary hepatocytes): completely blocked

O=C(/C=C/c1ccc(/C=C/C(=O)Nc2ccc(C3=NCCN3)cc2)cc1)Nc1ccc(C2=NCCN2)cc1 [GW4869]
concentration/release of exosomes from hepatocytes [2]: dose dependently blocked; also recorded: dose-dependently reduced

Oc1ccc(Nc2nc(-c3ccc(Cl)cc3)cs2)cc1 [SPHK I2]
exosome-induced hepatocyte proliferation ([1]; hepatocytes treated with 5-20 μM SPHK I2): completely abrogated
exosome-induced production of S1P in hepatocytes [3]: prevented; also recorded: completely blocked

From US10568945B2, “Compositions and methods for inducing liver regeneration by administering hepatocyte-derived exosomes” (University of Cincinnati, priority 2014, dated 2020)
